In ChEMBL document CHEMBL1154245, “Parazoanthines A-E, hydantoin alkaloids from the Mediterranean sea anemone Parazoanthus axinellae” (J Nat Prod, 2009):
Activity calls are given as the source filed them. The calls are words filed in the database; no cut-off is given here.

How the values were obtained:
[1] = Toxicity against Ircinia variabilis
[2] = test system: HT-29; assay: Antitumor activity against human HT-29 cells; assay type: functional, cell-based
[3] = test system: A549; assay: Antitumor activity against human A549 cells; assay type: functional, cell-based
[4] = Toxicity against Dysidea avara
[5] = test system: Plasmodium falciparum; assay: Antimalarial activity against Plasmodium falciparum FcB1; assay type: functional, organism-based; settings: FcB1/Columbia
[6] = test system: MDA-MB-231; assay: Antitumor activity against human MDA-MB-231 cells; assay type: functional, cell-based

Row | SMILES | EC50 [1] | Activity [2] | Activity [3] | EC50 [4] | Activity [5] | Activity [6]
1 | COc1ccc(/C=C/N2C(=O)N/C(=C\CCNC(=N)N)C2=O)cc1 [PARAZOANTHINE C] | 1640 nM | inactive | inactive | 1640 nM | inactive | inactive
2 | COc1ccc(/C=C/N2C(=O)N[C@@H](CCCNC(=N)N)C2=O)cc1Br |  | inactive | inactive |  | inactive | inactive
3 | N=C(N)NCC/C=C1\NC(=O)N(/C=C/c2ccc(O)cc2)C1=O |  | inactive | inactive |  | inactive | inactive
4 | N=C(N)NCCC[C@@H]1NC(=O)N(/C=C/c2ccc(O)cc2)C1=O |  | inactive | inactive |  | inactive | inactive
5 | COc1ccc(/C=C/N2C(=O)N/C(=C\CCNC(=N)N)C2=O)cc1Br |  | inactive | inactive |  | inactive | inactive
